# Reference: patent US20180117159A1, “Method for producing solid formulations with improved dissolution by annealing with an adjuvant” (priority 2016, published 2018)
# Legend:
# Format in all cases: physicochemical
# [1] = solubility of indomethacin in aqueous buffer at pH 2.5 (excess solid, stirred, 20 nm filtered, HPLC)
# Method: In addition to Examples 1-6, other experiments were done in which the solubility of indomethacin in aqueous buffer at pH 2.5 was determined. This was done by placing an excess amount of indomethacin solid (approximately 100 mg) in 20 mL of the buffer and stirring at a constant temperature of 37° C. for three days, after which an aliquot was taken and filtered through a Watman Anotop-10 20 nm filter, then assayed by HPLC for the dissolved indomethacin concentration in the solution. Subsequently, the temperature of the remaining indomethacin-buffer mixture was raised to approximately 95° C. and kept at that temperature with stirring for an additional 24 hours. After 24 hours, the dissolved indomethacin concentration was again determined by taking an aliquot, filtering through a 20 nm Anotop-10 filter, and assaying by HPLC.
# [2] = differential scanning calorimetry of annealed indomethacin-PVP mixtures (absence of melting endotherm = all drug dissolved)
# Method: Binary physical mixtures of the drug indomethacin and the polymer PVP (polyvinylpyrrolidone K29/32), both used as received, were mixed in various ratios, so the drug weight fraction ranged from 2.5-30% w/w (compared to the total physical mixture). Mixing was done for 15 minutes using a mortar and pestle. Solid solutions were then prepared by annealing and annealing with an adjuvant.
# Annealing was done by transferring weighed samples of the physical mixtures into glass vials, which were then stored in an oven without inducing a vacuum at 130° C. for 6 days to equilibrate and allow the indomethacin to distribute and dissolve in the PVP. After annealing, the samples were allowed to cool to room temperature.
# Annealing with an adjuvant was done by transferring weighed amounts of the physical mixtures into glass vials, then adding the adjuvant ethanol dropwise to the surface of the physical mixture in each vial in an adjuvant weight equal to approximately 25% of each dry drug-polymer physical mixture sample. No mixing of the adjuvant and physical mixture was done after adding the ethanol drops. The drug, polymer and adjuvant were then allowed to anneal in an oven at 70° C., with some samples annealing for 4 hours, some for 8 hours and some for 12 hours. After annealing with an adjuvant for each specified time, the samples were allowed to cool to room temperature. […]
# [3] = dissolution, USP Type II (paddle) apparatus, 150 mg formulation in 500 mL phosphate buffer pH 2.5 at 37° C.; settings: pH 2.5 buffer, 30 minutes
# Method: Dissolution experiments were done using a USP Type II (paddle type) apparatus, dissolving 150 mg of formulation in 500 mL of water buffered to a pH of 2.5 using phosphate buffer at 37° C. This corresponded to 15 mg of indomethacin per 500 mL of dissolution medium for the 10% indomethacin formulation, and 30 mg of indomethacin per 500 mL of dissolution medium for the 20% indomethacin formulation. In addition, pure indomethacin was dissolved in a similar USP type II apparatus for 30 minutes for comparison. […]
structure (smiles),measurement,setting,value
COc1ccc2c(c1)c(CC(=O)O)c(C)n2C(=O)c1ccc(Cl)cc1 [indomethacin],estimate for the solubility of indomethacin in the aqueous buffer,"[1]; 37° C., pH 2.5, estimate from solubility experiment and Example 1 dissolution",one to two
same,solubility at 3 days,"[1]; aqueous buffer, thermodynamic from solid, pH 2.5, 37° C., after three days stirring, read-out: dissolved indomethacin concentration (solubility) in aqueous buffer",< 1 µg/mL
same,solubility,"[1]; aqueous buffer, thermodynamic from solid, pH 2.5, three days at 37° C. plus an additional day at 95° C., read-out: dissolved indomethacin concentration (solubility) in aqueous buffer",~27 µg/mL
same,dissolved indomethacin concentration (solubility) in aqueous buffer,"[1]; pH 2.5, 37° C., after three days stirring",below one
same,indomethacin concentration in PVP up to which all of the drug dissolved (no melting endotherm by DSC),[2]; annealed with ethanol adjuvant (about 25% of mixture weight) for 12 hours at 70° C.,approximately 15 % by weight
same,indomethacin concentration in PVP up to which all of the drug dissolved (no melting endotherm by DSC),[2]; annealed without an adjuvant for 6 days at 130° C.,approximately 15 % by weight
same,dissolution in the aqueous buffer compared with indomethacin in physical mixtures with PVP,[3],much slower
